# Patent US10870638B2, “Pyridazinone compound or its salt, and herbicide containing it” (ISHIHARA SANGYO KAISHA, LTD., priority 2016, dated 2020)
# What was measured:
# Format in all cases: in vivo
# Settings in all cases: active ingredient amount 31 g/ha, 14th day after application
# [1] = tested on: prickly sida (Sida spinosa L.); assay: Test Example 2: soil application on the day after sowing, growth inhibition rate on 14th day
# Description: (§1) Upland field soil was put into a 1/300,000 hectare pot, and seeds of various plants (barnyardgrass (Echinochloa crus-qalli L.), crabgrass (Digitaris sanquinalis L.), green foxtail (Setaria viridis L.), redroot pigweed (Amaranthus retroflexus L.), prickly sida (Sida spinosa L.), velvetleaf (Abutilon theophrasti MEDIC.), rice (Oryza sativa L.), corn (Zea mays L.), wheat (Triticum aestivum L.), soybean (Glycine max Merr.)) were sown. On the day after sowing, wettable powders or emulsifiable concentrates of the compounds of the present invention prepared in accordance with a conventional preparation method, were weighed so as to achieve the prescribed active ingredient amounts, and diluted with water in an amount corresponding to 1,000 liters per 1 hectare, followed by soil application by a small sprayer.
# (§2) On the 14th day after the application, the state of growth of the respective plants was visually observed, and the herbicidal effect was evaluated by a growth inhibition rate (%) of 0 (equivalent to the non-treated area) to 100 (complete kill).
# [2] = tested on: wheat (Triticum aestivum L.); assay: as above
# Description: as §1, §2
# [3] = tested on: soybean (Glycine max Merr.); assay: as above
# Description: as §1, §2
# [4] = tested on: barnyardgrass (Echinochloa crus-qalli L.); assay: as above
# Description: as §1, §2
# [5] = tested on: crabgrass (Digitaris sanquinalis L.); assay: as above
# Description: as §1, §2
# corn (Zea mays L.) [6] = assay: as above
# Description: as §1, §2
# [7] = tested on: redroot pigweed (Amaranthus retroflexus L.); assay: as above
# Description: as §1, §2
# [8] = tested on: green foxtail (Setaria viridis L.); assay: as above
# Description: as §1, §2
# [9] = tested on: velvetleaf (Abutilon theophrasti MEDIC.); assay: as above
# Description: as §1, §2
# rice (Oryza sativa L.) [10] = assay: as above
# Description: as §1, §2
# [11] = tested on: wheat (Triticum aestivum L.); assay: Test Example 1: foliar treatment, growth inhibition rate on 14th day
# In short: (§3)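 Visual 0–100% inhibition scoring (100 = complete kill) at 14 days after foliar treatment of soil-grown seedlings at species-specific leaf stages, with the compound sprayed as a wettable powder or emulsifiable concentrate dilution.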
# [12] = tested on: soybean (Glycine max Merr.); assay: as above
# In short: (§4)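 Using a small sprayer, formulated compound in water (0.1 vol % surfactant, 1,000 L/ha) was applied to seedlings grown from seed in upland soil. Fourteen days on, growth state was observed and expressed as percent inhibition from 0 to 100.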
# [13] = tested on: crabgrass (Digitaria sanquinalis L.); assay: as above
# In short: as §3
# [14] = tested on: barnyardgrass (Echinochloa crus-qalli L.); assay: as above
# In short: as §3
# [15] = tested on: italian ryegrass (Lolium multiflorum Lam.); assay: as above
# In short: as §3
# corn (Zea mays L.) [16] = assay: as above
# In short: as §3
# [17] = tested on: wild oat (Avena fatua L.); assay: as above
# In short: as §4
# [18] = tested on: redroot pigweed (Amaranthus retroflexus L.); assay: as above
# In short: as §3
# [19] = tested on: green foxtail (Setaria viridis L.); assay: as above
# In short: as §4
# rice (Oryza sativa L.) [20] = assay: as above
# In short: as §4
# [21] = visual, 0 = non-treated, 100 = complete kill
Structure (SMILES),Growth inhibition rate (%) Prickly sida [1] [%],Growth inhibition rate (%) Wheat [2] [%],Growth inhibition rate (%) Soybean [3] [%],Growth inhibition rate (%) Barnyardgrass [4] [%],Growth inhibition rate (%) Crabgrass [5] [%],Growth inhibition rate (%) Corn (corn (Zea mays L.) [6]) [%],Growth inhibition rate (%) Redroot pigweed [7] [%],Growth inhibition rate (%) Green foxtail [8] [%],Growth inhibition rate (%) Velvetleaf [9] [%],Growth inhibition rate (%) Rice (rice (Oryza sativa L.) [10]) [%],Growth inhibition rate (%) Wheat [11] [%],Growth inhibition rate (%) Soybean [12] [%],Growth inhibition rate (%) Crabgrass [13] [%],Growth inhibition rate (%) Barnyardgrass [14] [%],Growth inhibition rate (%) Italian ryegrass [15] [%],Growth inhibition rate (%) Corn (corn (Zea mays L.) [16]) [%],Growth inhibition rate (%) Wild oat [17] [%],Growth inhibition rate (%) Redroot pigweed [18] [%],Growth inhibition rate (%) Green foxtail [19] [%],Growth inhibition rate (%) Rice (rice (Oryza sativa L.) [20]) [%],other results
Cc1ccc(Oc2cnc3cc(Cl)ccc3n2)cc1-c1c(OC(=O)c2ccccn2)c(C)nn(C)c1=O [Compound 3-51],0,0,0,99,95,0,0,100,0,0,–,–,–,–,–,–,–,–,–,–,"Growth inhibition rate (%) Wheat [11, 21]: 99%; Growth inhibition rate (%) Soybean [12, 21]: 30%; Growth inhibition rate (%) Crabgrass [13, 21]: 100%; Growth inhibition rate (%) Barnyardgrass [14, 21]: 99%; Growth inhibition rate (%) Italian ryegrass [15, 21]: 99%; Growth inhibition rate (%) Corn (corn (Zea mays L.) [16]; [21]): 60%; Growth inhibition rate (%) Wild oat [17, 21]: 99%; Growth inhibition rate (%) Redroot pigweed [18, 21]: 0%; Growth inhibition rate (%) Green foxtail [19, 21]: 100%; Growth inhibition rate (%) Rice (rice (Oryza sativa L.) [20]; [21]): 60%"
CCc1nn(C)c(=O)c(-c2cc(Oc3ncc(C(F)(F)F)cc3Cl)ccc2C)c1O [1-98],0,0,0,95,20,0,0,30,0,35,20,10,30,88,78,80,65,0,60,0,–
CC(=O)Oc1c(C)nn(C)c(=O)c1-c1cc(Oc2ncc(Cl)cc2F)ccc1C [Compound 2-59],0,0,0,75,70,0,0,40,0,0,40,0,83,99,90,90,95,0,83,90,–
C=CCn1ncc(O)c(-c2cc(Oc3ncc(C(F)(F)F)cc3Cl)ccc2C)c1=O [1-167],0,0,0,85,100,0,0,95,0,0,40,10,99,98,93,100,98,0,100,35,–
Cc1ccc(Oc2ncc(C(F)(F)F)cc2Cl)cc1-c1c(OC(=O)OC(C)(C)C)c(C)nn(C)c1=O [1-59],0,0,0,100,100,0,0,99,0,20,93,0,100,100,98,98,99,0,100,40,–
Cc1ccc(Oc2cnc3cc(Cl)ccc3n2)cc1-c1c(OC(=O)C(F)(F)F)c(C)nn(C)c1=O [Compound 3-52],0,0,0,99,95,0,0,100,0,0,–,–,–,–,–,–,–,–,–,–,"Growth inhibition rate (%) Wheat [11, 21]: 10%; Growth inhibition rate (%) Soybean [12, 21]: 20%; Growth inhibition rate (%) Crabgrass [13, 21]: 95%; Growth inhibition rate (%) Barnyardgrass [14, 21]: 100%; Growth inhibition rate (%) Italian ryegrass [15, 21]: 90%; Growth inhibition rate (%) Corn (corn (Zea mays L.) [16]; [21]): 35%; Growth inhibition rate (%) Wild oat [17, 21]: 20%; Growth inhibition rate (%) Redroot pigweed [18, 21]: 0%; Growth inhibition rate (%) Green foxtail [19, 21]: 100%; Growth inhibition rate (%) Rice (rice (Oryza sativa L.) [20]; [21]): 70%"
C=CCOC(=O)Oc1c(C)nn(C)c(=O)c1-c1cc(Oc2cnc3cc(Cl)ccc3n2)ccc1C [Compound 3-58],0,0,0,85,10,0,0,75,0,0,–,–,–,–,–,–,–,–,–,–,"Growth inhibition rate (%) Wheat [11, 21]: 98%; Growth inhibition rate (%) Soybean [12, 21]: 25%; Growth inhibition rate (%) Crabgrass [13, 21]: 99%; Growth inhibition rate (%) Barnyardgrass [14, 21]: 100%; Growth inhibition rate (%) Italian ryegrass [15, 21]: 99%; Growth inhibition rate (%) Corn (corn (Zea mays L.) [16]; [21]): 55%; Growth inhibition rate (%) Wild oat [17, 21]: 95%; Growth inhibition rate (%) Redroot pigweed [18, 21]: 0%; Growth inhibition rate (%) Green foxtail [19, 21]: 100%; Growth inhibition rate (%) Rice (rice (Oryza sativa L.) [20]; [21]): 50%"
Cc1ccc(Oc2nc3ccc(Cl)cc3o2)cc1-c1c(O)cnn(C(C)C)c1=O [Compound 2-171],0,0,0,65,30,0,0,75,0,0,0,30,90,99,30,80,0,0,93,25,–
